The target in series [1] is FGFR1 (Homo sapiens, UniProt P11362). Briefly: ELISA kinase assay (FGFR1 enzymatic assay). In kind it is biochemical. The conditions noted are these: for inhibition at 0.01 µM: 0.01 μmol/L compound; for inhibition at 0.01 µM / inhibition at 0.1 µM / inhibition at 1 µM: read-out: Enzyme Inhibition (%); for inhibition at 0.1 µM: 0.1 μmol/L compound; for IC50: mean ± SD, two separate experiments; for inhibition at 1 µM: 1 μmol/L compound. The method, then:
The effects of compounds on the activities of FGFR1 kinases were determined using enzyme-linked immunosorbent assays (ELISAs) with purified recombinant proteins. Briefly, 20 μg/mL poly (Glu, Tyr)4:1 (Sigma, St. Louis, MO, USA) was pre-coated in 96-well plates as a substrate. A 50-μL aliquot of 10 μmol/L ATP solution diluted in kinase reaction buffer (50 mmol/L HEPES [pH 7.4], 50 mmol/L MgCl2, 0.5 mmol/L MnCl2, 0.2 mmol/L Na3VO4, and 1 mmol/L DTT) was added to each well; 1 μL of various concentrations of compounds diluted in 1% DMSO (v/v) (Sigma) were then added to each reaction well. DMSO (1%, v/v) was used as the negative control. The kinase reaction was initiated by the addition of purified tyrosine kinase proteins diluted in 49 μL of kinase reaction buffer. After incubation for 60 min at 37 °C, the plate was washed three times with phosphate-buffered saline (PBS) containing 0.1% Tween 20 (T-PBS). Anti-phosphotyrosine (PY99) antibody (100 μL; 1:500, diluted in 5 mg/mL BSA T-PBS) was then added. After a 30-min incubation at 37 °C, the plate was washed three times, and 100 μL horseradish peroxidase-conjugated goat anti-mouse IgG (1:2000, diluted in 5 mg/mL BSA T-PBS) was added. The plate was then incubated at 37 °C for 30 min and washed 3 times. A 100-μL aliquot of a solution containing 0.03% H2O2 and 2 mg/mL o-phenylenediamine in 0.1 mol/L citrate buffer (pH 5.5) was added. The reaction was terminated by the addition of 50 μL of 2 mol/L H2SO4 as the color changed, and the plate was analyzed using a multi-well spectrophotometer (SpectraMAX 190, Molecular Devices, Palo Alto, CA, USA) at 490 nm. […] The IC50 values were calculated from the inhibition curves in two separate experiments.

Chain of FGFR1 (P11362 22-822): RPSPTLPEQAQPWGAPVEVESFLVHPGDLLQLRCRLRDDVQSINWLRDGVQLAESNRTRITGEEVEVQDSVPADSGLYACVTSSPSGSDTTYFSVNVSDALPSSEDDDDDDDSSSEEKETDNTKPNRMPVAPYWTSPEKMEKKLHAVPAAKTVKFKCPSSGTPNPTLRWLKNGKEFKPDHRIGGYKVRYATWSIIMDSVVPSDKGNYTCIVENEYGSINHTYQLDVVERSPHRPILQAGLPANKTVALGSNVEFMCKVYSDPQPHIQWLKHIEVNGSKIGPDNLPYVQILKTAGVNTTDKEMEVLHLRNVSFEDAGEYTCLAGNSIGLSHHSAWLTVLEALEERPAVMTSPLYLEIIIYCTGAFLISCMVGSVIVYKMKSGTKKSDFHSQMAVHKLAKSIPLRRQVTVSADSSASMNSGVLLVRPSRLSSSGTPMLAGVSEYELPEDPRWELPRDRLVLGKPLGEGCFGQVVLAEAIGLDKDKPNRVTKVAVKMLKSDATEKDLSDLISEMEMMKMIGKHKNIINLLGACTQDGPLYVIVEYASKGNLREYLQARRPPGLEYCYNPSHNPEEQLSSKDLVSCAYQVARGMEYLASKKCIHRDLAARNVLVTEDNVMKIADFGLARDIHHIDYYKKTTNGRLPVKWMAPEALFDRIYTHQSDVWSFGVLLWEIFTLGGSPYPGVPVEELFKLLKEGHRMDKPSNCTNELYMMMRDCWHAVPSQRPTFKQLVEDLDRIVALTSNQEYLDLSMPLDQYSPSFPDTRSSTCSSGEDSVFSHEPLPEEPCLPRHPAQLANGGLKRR

For `COc1cc(OC)c(Cl)c(-c2cc(C(=O)Nc3cccc(N4CCN(C(C)=O)CC4)c3)c3cn[nH]c3c2)c1Cl` [Compound 13e, N-(3-(4-Acetylpiperazin-1-yl)phenyl)-6-(2,6-dichloro-3,5-dimethoxyphenyl)-1H-indazole-4-carboxamide], the melting point lay in the range of 209 to 211 °C. Further, in series [1], the inhibition at 0.01 µM is 27.7%, the inhibition at 0.1 µM stood at 64.7% and the half-inhibitory concentration (IC50) amounted to 118 ± 3.9 nM.
`C=CCN1CCN(c2cccc(NC(=O)c3cc(-c4c(Cl)c(OC)cc(OC)c4Cl)cc4[nH]ncc34)c2)CC1` [Compound 13c, N-(3-(4-Allylpiperazin-1-yl)phenyl)-6-(2,6-dichloro-3,5-dimethoxyphenyl)-1H-indazole-4-carboxamide]: in series [1], the inhibition at 0.01 µM is 35.7%, the inhibition at 0.1 µM is 41.3% and the IC50 was determined as 464 ± 99.1 nM.
On to `COc1cc(OC)c(Cl)c(-c2cc(C(=O)Nc3cccc([N+](=O)[O-])c3)c3cn[nH]c3c2)c1Cl` [Compound 12d, 6-(2,6-Dichloro-3,5-dimethoxyphenyl)-N-(3-nitrophenyl)-1H-indazole-4-carboxamide], for which, in series [1], the inhibition at 0.01 µM was determined as 17.4% and the inhibition at 0.1 µM was found to be 31.6%.
With `COc1cc(OC)c(Cl)c(-c2cc(C(=O)Nc3cccc(-c4cncnc4)c3)c3cn[nH]c3c2)c1Cl` [Compound 12i, 6-(2,6-Dichloro-3,5-dimethoxyphenyl)-N-(3-(pyrimidin-5-yl)phenyl)-1H-indazole-4-carboxamide], the melting point was 177 to 179 °C. Moreover, in series [1], the inhibition at 0.01 µM is 35.1%, the inhibition at 0.1 µM was found to be 60.3% and the IC50 is 86.2 ± 17 nM.
For the compound `COc1cccc(NC(=O)c2cc(-c3c(Cl)c(OC)cc(OC)c3Cl)cc3[nH]ncc23)n1` [Compound 11a, 6-(2,6-Dichloro-3,5-dimethoxyphenyl)-N-(6-methoxypyridin-2-yl)-1H-indazole-4-carboxamide], in series [1], the inhibition at 0.1 µM was found to be 47.2% and the inhibition at 1 µM was found to be 79.2%.
`CCOC(=O)c1cccc(NC(=O)c2cc(-c3c(Cl)c(OC)cc(OC)c3Cl)cc3[nH]ncc23)c1` [Compound 12c, Ethyl 3-(6-(2,6-dichloro-3,5-dimethoxyphenyl)-1H-indazole-4-carboxamido)benzoate]: in series [1], the inhibition at 0.01 µM came to 9.9% and the inhibition at 0.1 µM amounted to 36.8%.
`COc1cc(NC(=O)c2cc(-c3c(Cl)c(OC)cc(OC)c3Cl)cc3[nH]ncc23)ccn1` [Compound 11b, 6-(2,6-Dichloro-3,5-dimethoxyphenyl)-N-(2-methoxypyridin-4-yl)-1H-indazole-4-carboxamide]: in series [1], the inhibition at 0.1 µM is 49.5% and the inhibition at 1 µM is 84.3%.
As for `COc1cc(OC)c(Cl)c(-c2cc(C(=O)Nc3cccc(N4CCN(C(C)C)CC4)c3)c3cn[nH]c3c2)c1Cl` [Compound 13d, 6-(2,6-Dichloro-3,5-dimethoxyphenyl)-N-(3-(4-isopropylpiperazin-1-yl)phenyl)-1H-indazole-4-carboxamide], in series [1], the inhibition at 0.01 µM worked out at 7.2% and the inhibition at 0.1 µM is 18.5%.
Take `COc1cc(OC)c(Cl)c(-c2cc(C(=O)Nc3cccc(N4CCN(C)C4=O)c3)c3cn[nH]c3c2)c1Cl` [Compound 12e, 6-(2,6-Dichloro-3,5-dimethoxyphenyl)-N-(3-(3-methyl-2-oxoimidazolidin-1-yl)phenyl)-1H-indazole-4-carboxamide]: in series [1], the inhibition at 0.01 µM stood at 17.2% and the inhibition at 0.1 µM came out at 36.7%.
As for `COc1cccc(NC(=O)c2cc(-c3c(Cl)c(OC)cc(OC)c3Cl)cc3[nH]ncc23)c1` [Compound 10d, 6-(2,6-Dichloro-3,5-dimethoxyphenyl)-N-(3-methoxyphenyl)-1H-indazole-4-carboxamide], in series [1], the inhibition at 0.1 µM stood at 57% and the inhibition at 1 µM came to 78.4%.
The compound `COc1cc(OC)c(Cl)c(-c2cc(C(=O)Nc3cccc(N4CCOCC4)c3)c3cn[nH]c3c2)c1Cl` [Compound 12f, 6-(2,6-Dichloro-3,5-dimethoxyphenyl)-N-(3-morpholinophenyl)-1H-indazole-4-carboxamide] gave a melting point of 159 to 161 °C. Further, in series [1], the inhibition at 0.01 µM is 28.3%, the inhibition at 0.1 µM was 58.7% and the IC50 came to 54 ± 8.7 nM.
The compound `COc1cc(OC)c(Cl)c(-c2cc(C(=O)Nc3ccccc3)c3cn[nH]c3c2)c1Cl` [Compound 10a, 6-(2,6-Dichloro-3,5-dimethoxyphenyl)-N-phenyl-1H-indazole-4-carboxamide] displayed a melting point of 115 to 117 °C. Further, in series [1], the inhibition at 0.01 µM stood at 27.3%, the inhibition at 0.1 µM was found to be 58.8%, the inhibition at 1 µM worked out at 84.1% and the IC50 came out at 69.1 ± 19.8 nM.
As to `COC(=O)c1cccc(NC(=O)c2cc(-c3c(Cl)c(OC)cc(OC)c3Cl)cc3[nH]ncc23)c1` [Compound 12a, Methyl 3-(6-(2,6-dichloro-3,5-dimethoxyphenyl)-1H-indazole-4-carboxamido)benzoate], in series [1], the inhibition at 0.01 µM amounted to 17.1% and the inhibition at 0.1 µM turned out to be 35.7%.
As to `COc1ccnc(NC(=O)c2cc(-c3c(Cl)c(OC)cc(OC)c3Cl)cc3[nH]ncc23)c1` [Compound 11c, 6-(2,6-Dichloro-3,5-dimethoxyphenyl)-N-(4-methoxypyridin-2-yl)-1H-indazole-4-carboxamide], in series [1], the inhibition at 0.1 µM turned out to be 42.3% and the inhibition at 1 µM was 80%.
Taken in the same sequence, the figures for `COc1cc(NC(=O)c2cc(-c3c(Cl)c(OC)cc(OC)c3Cl)cc3[nH]ncc23)ncn1` [Compound 11d, 6-(2,6-Dichloro-3,5-dimethoxyphenyl)-N-(6-methoxypyrimidin-4-yl)-1H-indazole-4-carboxamide] were 43.1% and 78.5%.
`COc1cc(OC)c(Cl)c(-c2cc(C(=O)Nc3cccc(N4CCNCC4)c3)c3cn[nH]c3c2)c1Cl` [Compound 12g, 6-(2,6-Dichloro-3,5-dimethoxyphenyl)-N-(3-(piperazin-1-yl)phenyl)-1H-indazole-4-carboxamide] came in with a melting point of 221 to 223 °C. Besides, in series [1], the inhibition at 0.01 µM came to 45.1%, the inhibition at 0.1 µM amounted to 60.9% and the IC50 was determined as 78.8 ± 14.2 nM.
With `COc1cc(OC)c(Cl)c(-c2cc(C(=O)Nc3ccc(C(C)=O)cc3)c3cn[nH]c3c2)c1Cl` [Compound 10c, N-(4-Acetylphenyl)-6-(2,6-dichloro-3,5-dimethoxyphenyl)-1H-indazole-4-carboxamide], in series [1], the inhibition at 0.1 µM stood at 32.2% and the inhibition at 1 µM came to 52.9%.
`CNC(=O)c1cccc(NC(=O)c2cc(-c3c(Cl)c(OC)cc(OC)c3Cl)cc3[nH]ncc23)c1` [Compound 12b, 6-(2,6-Dichloro-3,5-dimethoxyphenyl)-N-(3-(methylcarbamoyl)phenyl)-1H-indazole-4-carboxamide] had a melting point of 155 to 157 °C. Besides, in series [1], the inhibition at 0.01 µM was 42.1%, the inhibition at 0.1 µM came to 62.3% and the IC50 turned out to be 38.6 ± 0.2 nM.
On to `COc1cc(OC)c(Cl)c(-c2cc(C(=O)Nc3cccc(C(C)=O)c3)c3cn[nH]c3c2)c1Cl` [Compound 10b, N-(3-Acetylphenyl)-6-(2,6-dichloro-3,5-dimethoxyphenyl)-1H-indazole-4-carboxamide], for which, in series [1], the inhibition at 0.1 µM amounted to 76.4% and the inhibition at 1 µM stood at 82.4%.
For `COc1ccc(NC(=O)c2cc(-c3c(Cl)c(OC)cc(OC)c3Cl)cc3[nH]ncc23)cc1` [Compound 10e, 6-(2,6-Dichloro-3,5-dimethoxyphenyl)-N-(4-methoxyphenyl)-1H-indazole-4-carboxamide], in series [1], the inhibition at 0.1 µM was 11.9% and the inhibition at 1 µM came to 68.5%.
The compound `COc1cc(OC)c(Cl)c(-c2cc(C(=O)Nc3cccc(-c4cnn(C)c4)c3)c3cn[nH]c3c2)c1Cl` [Compound 12h, 6-(2,6-Dichloro-3,5-dimethoxyphenyl)-N-(3-(1-methyl-1H-pyrazol-4-yl)phenyl)-1H-indazole-4-carboxamide] had a melting point of 188 to 190 °C. Further, in series [1], the inhibition at 0.01 µM was 34.5%, the inhibition at 0.1 µM stood at 52.7% and the IC50 worked out at 102.9 ± 0.6 nM.
Regarding `CCN1CCN(c2cccc(NC(=O)c3cc(-c4c(Cl)c(OC)cc(OC)c4Cl)cc4[nH]ncc34)c2)CC1` [Compound 13b, 6-(2,6-Dichloro-3,5-dimethoxyphenyl)-N-(3-(4-ethylpiperazin-1-yl)phenyl)-1H-indazole-4-carboxamide], in series [1], the inhibition at 0.01 µM was 13.7%, the inhibition at 0.1 µM was 26.4% and the IC50 came to 328 ± 65.7 nM.
For `COc1nccc(NC(=O)c2cc(-c3c(Cl)c(OC)cc(OC)c3Cl)cc3[nH]ncc23)n1` [Compound 11e, 6-(2,6-Dichloro-3,5-dimethoxyphenyl)-N-(2-methoxypyrimidin-4-yl)-1H-indazole-4-carboxamide], in series [1], the inhibition at 0.1 µM came out at 31% and the inhibition at 1 µM was 57.4%.

The values above are taken from paper PMC6273472, “Design, Synthesis and Biological Evaluation of 6-(2,6-Dichloro-3,5-dimethoxyphenyl)-4-substituted-1H-indazoles as Potent Fibroblast Growth Factor Receptor Inhibitors” (Molecules, 2016).
